Laboratory results as given in patent US7129398B2, “Reversible male sterility in transgenic plants by expression of a GA-insensitive mutant protein, gai” (Monsanto Technology LLC, priority 2001, dated 2006).

Tested on: male sterile transgenic plants (pMON42169, TA29-gai)
Test: Fertility restoration of gai male sterile transgenic tobacco plants by chemical spray
Type: in vivo, Nicotiana tabacum
Details: for restoration of male fertility: aqueous 0.25% Sylgard 309; for Seed weight: mean of 5 seed sets ± SE
Method: Kanamycin resistant F1 seedlings were transferred to soil and grown to flowering stage. After male sterility in the first few flowers was observed, plants from each lines were divided into four groups to receive different treatments every other day. One group received 15 mg of kinetin (a synthetic cytokinin) (Sigma) per plant, while the other two groups received either 10 mg of GA3 (Sigma) or 10 mg of TDZ (Sigma) per plant. The chemicals are in an aqueous solution containing 0.25% of Sylgard 309 surfactant (Willbur-Ellis, Fresno, Calif.) and the last group received surfactant only. The applications continued for two weeks. In another experiment, F1 plants from several male sterile transgenic lines were selected based on resistance to kanamycin and grown to flowering to verify the inheritance of the male sterile phenotype. Each plant was then sprayed with a solution containing 15 mg of kinetin every other day for two weeks. The plants continued to develop male sterile flowers until 10 days after the first application of kinetin. At 10 days post-application, the flowers that developed were male fertile. Flowers from treated plants began visibly shedding pollen whereas untreated flowers remained sterile. Under greenhouse growth conditions, the transition from stage −3 to stage 12 for a tobacco floral bud occurred in approximately 10 days. It appeared that for effective fertility restoration, kinetin needed to be applied prior to stage −2, which coincided with the onset of the TA29 promoter.

[1] = F1 male sterile transgenic tobacco, 10 mg per plant every other day for two weeks

Structure (SMILES)	restoration of male fertility [1]	persistence of production of male fertile flowers post-application (15 mg per plant every other day for two weeks) [days]	time after first application until developing flowers were male fertile (15 mg per plant every other day for two weeks, F1 male sterile transgenic tobacco lines) [days]	restoration of male fertility (F1 male sterile transgenic tobacco, 15 mg per plant every other day for two weeks)	Seed weight (event 782 (S): selfing after fertility restoration) [mg]	Seed weight (event 790 (S): selfing after fertility restoration) [mg]	morphology and seed set of restored flowers (kinetin-restored flowers of male sterile transgenic tobacco)	difference in seed weight, selfed seed of restored flowers vs crossed seed of sterile flowers and selfed seed of wild-type flowers (lines 788 and 790)	restoration of anther development [1]
O=C(Nc1ccccc1)Nc1cnns1 [TDZ]	did not restore the fertility								
c1coc(CNc2ncnc3[nH]cnc23)c1 [kinetin]		11	10	shed pollen and set seeds	113.0 ± 18.9	110.2 ± 13.5	morphologically normal but also had typical seed sets	no significant difference	
C=C1C[C@]23C[C@@]1(O)CC[C@H]2[C@@]12C=C[C@H](O)[C@@](C)(C(=O)O1)[C@H]2[C@@H]3C(=O)O [GA3]	remained male sterile								did not restore the anther development
